Values quoted from earlier work as cited in patent US20200147064A1, “Reduction of Pro-Inflammatory HDL Using a Leukotriene Inhibitor” (Autoimmune Pharma LLC, priority 2017, published 2020).

Test system: leukotriene production
Conditions: statement in words, cited from Stock, N S et al., J Med Chem. 2011

In the case of CCOc1ccc(-c2ccc(Cn3c(CC(C)(C)C(=O)O)c(SC(C)(C)C)c4cc(OCc5ccc(C)cn5)ccc43)cc2)cn1 [Compound 2-107, 3-[3-tert-butylsulfanyl-1-[4-(6-ethoxy-pyridin-3-yl)-benzyl]-5-(5-methyl-pyridin-2-ylmethoxy)-1H-indol-2-yl]-2,2-dimethyl-propionic acid], the “inhibitor of leukotriene production in vivo” value is given as “potent inhibitor of leukotriene production in vivo”.
